Results taken from ChEMBL document CHEMBL1141818, “Annonaceous acetogenins: recent progress” (J Nat Prod, 1999).
≈ marks a conversion by molar mass, not a printed value.

Key:
HCT-8 = experiment: Cytotoxicity against human HCT8 cells; format: functional, cell-based
PC-3 = experiment: Cytotoxicity against human PC-3 cells; format: functional; settings: for EC50: Homo sapiens, PC-3, read-out: ED50 (the source's name)
MIA PaCa-2 = experiment: Cytotoxicity against human MIA PaCa2 cells; format: functional; settings: for EC50: Homo sapiens, MIA PaCa-2, read-out: ED50 (the source's name)
Artemia = experiment: (§1) Toxicity in brine shrimp; format: organism-based; settings: in vivo
A549 = experiment: Cytotoxicity against human A549 cells; format: functional; settings: for EC50: Homo sapiens, A549, read-out: ED50 (the source's name)
MCF7 = experiment: Cytotoxicity against human MCF7 cells; format: functional; settings: for EC50: Homo sapiens, MCF7, read-out: ED50 (the source's name)
HT-29 = experiment: Cytotoxicity against human HT-29 cells; format: functional; settings: for EC50: Homo sapiens, HT-29, read-out: ED50 (the source's name)
A498 = experiment: Cytotoxicity against human A-498 cells; format: functional; settings: for EC50: Homo sapiens, A498, read-out: ED50 (the source's name)
Blattella germanica [1] = experiment: Ratio of LT50 for Blattella germanica Muncie second instars to LT50 for Blattella germanica Jwax second instars; format: functional
Blattella germanica [2] = experiment: Ratio of LT50 for Blattella germanica Muncie fifth instars to LT50 for Blattella germanica Jwax fifth instars; format: functional
KB = experiment: Cytotoxicity against human KB cells; format: functional, cell-based; settings: for IC50: Homo sapiens, KB
Bel-7402 = experiment: Cytotoxicity against human Bel-7402 cells; format: functional, cell-based
HL-60 = experiment: Cytotoxicity against human HL-60 cells; format: functional, cell-based
A2780 = experiment: Cytotoxicity against human A2780 cells; format: functional, cell-based
[3] = as §1; format: organism-based; settings: artemia, in vivo

CCCCCCCCCCCC[C@H](O)[C@@H]1CC[C@H]([C@H](O)CCCCC(O)CCCCC[C@@H](O)CC2=C[C@@](C)(O)OC2=O)O1 (stereo partly drawn)
IC50 (HCT-8): < 10 µg/mL

CCCCCCCCCC[C@@H](O)[C@H]1CC[C@@H]([C@H]2CC[C@H]([C@H](O)CCCCCCCCCC[C@@H]3CC(CC(C)=O)C(=O)O3)O2)O1 (mixture of isomers)
EC50 (PC-3): 2.8 µg/mL | EC50 (MIA PaCa-2): 0.069 µg/mL | LC50 (Artemia): 2 ×10⁻² ug/ml | ED50 (A549): 4.6 ×10⁻⁴ ug/ml | ED50 (MCF7): 1.3 ×10⁻⁸ ug/ml | EC50 (HT-29): 1.6 µg/mL | EC50 (A498): 0.49 µg/mL

CCCCCCCCCC[C@H](O)[C@H]1CC[C@H]([C@H](O)CCCCCC(O)CCCCCCC2CC(CC(C)=O)C(=O)O2)O1 (mixture of isomers)
EC50 (PC-3): 2.24 µg/mL | EC50 (MIA PaCa-2): 0.0095 µg/mL | LC50 (Artemia): 9.7 ×10⁻² ug/ml | EC50 (A549): 0.21 µg/mL | EC50 (MCF7): 0.0011 µg/mL | EC50 (HT-29): 0.35 µg/mL | EC50 (A498): 0.0067 µg/mL

CCCCCCCCCCCC[C@H](O)[C@H]1CC[C@H]([C@H](O)CCCCCC(O)CCCCCCC2CC(CC(C)=O)C(=O)O2)O1 (mixture of isomers) [(2,4-CIS/TRANS)-SQUAMOXINE B]
EC50 (PC-3): 0.05 µg/mL | ED50 (MIA PaCa-2): 8.3 ×10⁻⁴ ug/ml | LC50 (Artemia): 4.6 ×10⁻² ug/ml | EC50 (A549): 0.0038 µg/mL | EC50 (MCF7): 0.0014 µg/mL | EC50 (HT-29): 0.0027 µg/mL | EC50 (A498): 0.004 µg/mL

CCCCCCCCCC[C@H](O)[C@H]1CC[C@H]([C@H]2CC[C@H]([C@H](O)CCCCCCCCCC[C@@H]3CC(CC(C)=O)C(=O)O3)O2)O1 (mixture of isomers) [BULLATACINONE]
EC50 (PC-3): 2.6 µg/mL | EC50 (MIA PaCa-2): 1.1 µg/mL | LC50 (Artemia): 7.4 ×10⁻² ug/ml | EC50 (A549): 1.9 µg/mL | EC50 (MCF7): 1.8 µg/mL | EC50 (HT-29): 1.7 µg/mL | EC50 (A498): 1.8 µg/mL

CCCCCCCCCC[C@H](O)[C@@H](O)CCCC[C@H]1CC[C@H]([C@H]2CC[C@H]([C@H](O)CCCCC[C@@H](O)CC3=C[C@H](C)OC3=O)O2)O1 (stereo in doubt) [GLACIN B]
ED50 (PC-3): 1.2 µg/mL (≈ 1.88 µM) | ED50 (MIA PaCa-2): 2.8 ×10⁻¹ ug/ml | LC50 (Artemia): 3.1 ×10⁻¹ ug/ml | ED50 (A549): 1.6 ×10⁻¹ ug/ml | ED50 (MCF7): 1.8 ×10⁻³ ug/ml | ED50 (HT-29): 1.9 ×10⁻² ug/ml | ED50 (A498): 1.4 µg/mL (≈ 2.19 µM)

CCCCC[C@H](O)[C@H](O)CCC[C@H](O)[C@H]1CC[C@H]([C@H]2CC[C@H]([C@H](O)CCCCCCCCCCCCC3=C[C@H](C)OC3=O)O2)O1 (stereo in doubt; 97) [PURPUREDIOLIN]
ED50 (PC-3): 3.5 ×10⁻¹ ug/ml | ED50 (MIA PaCa-2): 1.4 µg/mL (≈ 2.19 µM) | LC50 (Artemia): 7 ×10⁻² ug/ml | ED50 (A549): 4.4 ×10⁻¹ ug/ml | EC50 (MCF7): 0.92 µg/mL (≈ 1.44 µM) | EC50 (A498): 1.4 µg/mL (≈ 2.19 µM)

CC1(C)C(C=C(Cl)Cl)C1C(=O)OC(C#N)c1cccc(Oc2ccccc2)c1 (stereo not drawn) [ALPHA-CYPERMETHRIN]
Ratio (Blattella germanica [1]): 2

CCCCCCCCCCCC[C@H](O)[C@@H]1CC[C@@H]([C@@H](O)CCCCCCC(O)CCCCC[C@@H](O)CC2=C[C@H](C)OC2=O)O1 (stereo partly drawn) [ANNOMONTACIN]
Ratio (Blattella germanica [1]): 0.6 | Ratio (Blattella germanica [2]): 0.2

CCCCCCCCCCC(O)C1CCC(C2CCC(C(O)CCCCCCCC[C@H](O)CC3=C[C@@H](C)OC3=O)O2)O1 (stereo partly drawn) [ASIMICIN]
Ratio (Blattella germanica [1]): 0.9 | Ratio (Blattella germanica [2]): 1.6

CNC(=O)Oc1cccc2c1OC(C)(C)O2 [BENDIOCARB]
Ratio (Blattella germanica [1]): 2.5 | Ratio (Blattella germanica [2]): 0.9

CCCCCCCCCC[C@@H](O)[C@H]1CC[C@H]([C@H]2CC[C@H]([C@H](O)CCCCCCCC[C@@H](O)CCCC3=C[C@H](C)OC3=O)O2)O1 [BULLACIN]
EC50 (PC-3): > 1 µg/mL | EC50 (MIA PaCa-2): 0.41 µg/mL (≈ 0.658 µM) | LC50 (Artemia): 1.9 ×10⁻² ug/ml | ED50 (A549): 9 ×10⁻⁷ ug/ml | ED50 (MCF7): 2.5 ×10⁻⁷ ug/ml | EC50 (HT-29): 0.0045 µg/mL (≈ 0.00722 µM) | EC50 (A498): > 1 µg/mL

CCCCCCC(O)CCC[C@H](O)[C@@H]1CC[C@@H]([C@@H]2CC[C@H]([C@H](O)CCCCCCCCCCCCC3=C[C@H](C)OC3=O)O2)O1 (stereo partly drawn) [CAROLIN A]
ED50 (KB): 1 ×10⁻⁷ ug/ml

CCCCCC(O)CCCC[C@H](O)[C@@H]1CC[C@@H]([C@@H]2CC[C@H]([C@H](O)CCCCCCCCCCCCC3=C[C@H](C)OC3=O)O2)O1 (stereo partly drawn) [CAROLIN B]
ED50 (KB): 5 ×10⁻⁶ ug/ml

CCOP(=S)(OCC)Oc1nc(Cl)c(Cl)cc1Cl [CHLORPYRIFOS]
Ratio (Blattella germanica [1]): 3.8 | Ratio (Blattella germanica [2]): 8

CCCCCCCCCCCC[C@@H](O)[C@H]1CC[C@H]([C@H](O)CCCCCCCCCC[C@@H](O)CC2=C[C@@](C)(O)OC2=O)O1 [DONNAIENIN A]
IC50 (KB): < 1 µg/mL | IC50 (HCT-8): < 10 µg/mL

CCCCCCCCCCCCCC[C@H](O)[C@@H](O)CC[C@H](O)[C@@H]1CC[C@@H](CCCCC[C@@H](O)CC2=C[C@@](C)(O)OC2O)O1 (stereo partly drawn) [DONNAIENIN B]
IC50 (KB): 10 µg/mL (≈ 16.3 µM)

CCCCCCCCCCCC[C@@H](O)[C@H]1CC[C@H]([C@H](O)CCCC[C@H](O)CCCCC[C@H](CC2=C[C@@](C)(O)OC2=O)OC(C)=O)O1 [DONNAIENIN C]
IC50 (KB): > 10 µg/mL | IC50 (HCT-8): > 10 µg/mL | IC50 (Bel-7402): 7.1 µg/mL (≈ 10.8 µM)

CCCCCCCCCCCC[C@@H](O)[C@H](O)CC[C@@H](O)[C@H](O)CCCC[C@H](O)CCCCC[C@H](CC1=C[C@@](C)(O)OC1=O)OC(C)=O [DONNAIENIN D]
IC50 (KB): > 10 µg/mL | IC50 (HCT-8): > 10 µg/mL | IC50 (Bel-7402): > 10 µg/mL

CCCCCCCCCCCCCC[C@H](O)[C@@H]1C[C@@H](O)[C@@H]([C@@H](O)CC[C@@H](O)CCCCC[C@@H](O)CC2=C[C@H](C)OC2=O)O1 [DONNAIENIN]
IC50 (KB): > 10 µg/mL | IC50 (HCT-8): 6.6 µg/mL (≈ 10.8 µM) | IC50 (Bel-7402): 6.7 µg/mL (≈ 10.9 µM)

CCCCCCCCCCCC[C@H](O)[C@H](O)CC[C@H](O)[C@@H]1CC[C@@H](C[C@H](O)CCCCC[C@@H](O)CC2=C[C@@](C)(O)OC2=O)O1 [GARDNERININ]
IC50 (KB): > 10 µg/mL | IC50 (HCT-8): 6.6 µg/mL (≈ 10.5 µM) | IC50 (Bel-7402): > 10 µg/mL

CCCCCCCCCCCCCC[C@@H](O)[C@H](O)CC[C@H](O)[C@@H]1CC[C@@H](CCCCC[C@@H](O)CC2=C[C@H](C)OC2=O)O1 [GIGANTETROCIN A]
Ratio (Blattella germanica [1]): 0.9 | Ratio (Blattella germanica [2]): 1.5

CCCCCCCCCCCC[C@@H](O)[C@H]1CC[C@H]([C@H](O)CCCCC(O)CCCCC[C@@H](O)CC2=C[C@@](C)(O)OC2=O)O1 (stereo partly drawn) [GONIODONIN]
IC50 (HCT-8): < 10 µg/mL

CC1(C)CNC(=NN=C(/C=C/c2ccc(C(F)(F)F)cc2)/C=C/c2ccc(C(F)(F)F)cc2)NC1 [HYDRAMETHYLNON]
Ratio (Blattella germanica [1]): 1 | Ratio (Blattella germanica [2]): 0.6

CCCCCCCCCC[C@@H](O)[C@H]1CC[C@H]([C@H]2CC[C@H]([C@H](O)CCCCCCCC[C@@H](O)CC3=C[C@H](C)OC3=O)O2)O1 [PARVIFLORIN]
Ratio (Blattella germanica [1]): 0.9 | Ratio (Blattella germanica [2]): 1.5

CNC(=O)Oc1ccccc1OC(C)C [PROPOXUR]
Ratio (Blattella germanica [1]): 3.8 | Ratio (Blattella germanica [2]): 1.7

CCCCC[C@H](O)CCCC[C@H](O)[C@H]1CC[C@H]([C@H]2CC[C@H]([C@H](O)CCCC[C@H](O)CCCCCCCC3=C[C@H](C)OC3=O)O2)O1 [PURPURENIN]
EC50 (PC-3): 1.1 µg/mL (≈ 1.72 µM) | EC50 (MIA PaCa-2): 2 µg/mL (≈ 3.13 µM) | LC50 (Artemia): 2.9 ×10⁻² ug/ml | EC50 (A549): 1.3 µg/mL (≈ 2.03 µM) | EC50 (MCF7): 1.7 µg/mL (≈ 2.66 µM) | EC50 (HT-29): 0.32 µg/mL (≈ 0.501 µM) | EC50 (A498): 1.3 µg/mL (≈ 2.03 µM)

CCCCCCCCCC[C@@H](O)[C@@H]1CC[C@H]([C@H](O)CC[C@H](O)[C@@H]2CC[C@@H](CCCCCCC[C@@H](O)CC3=C[C@H](C)OC3=O)O2)O1 [SYLVATICIN]
Ratio (Blattella germanica [1]): 1.7 | Ratio (Blattella germanica [2]): 3.9

CCCCCCCCCCCCCCCC[C@@H](O)[C@H](O)CCCCCCCCCCCCCCC1=C[C@H](C)OC1=O [TONKINELIN]
IC50 (KB): > 10 µg/mL | IC50 (HCT-8): 6.7 µg/mL (≈ 11.6 µM) | IC50 (HL-60): 1 µg/mL (≈ 1.73 µM) | IC50 (A2780): > 10 µg/mL

CCCCCCCCCCCC[C@H](O)[C@H]1CC[C@H]([C@H](O)CC(O)CCCCCCCCCC(=O)CCC2=C[C@H](C)OC2=O)O1 (stereo partly drawn) [TONKININ A]
IC50 (KB): > 10 µg/mL | IC50 (HCT-8): 0.59 µg/mL (≈ 0.947 µM) | IC50 (HL-60): 0.016 µg/mL (≈ 0.0257 µM) | IC50 (A2780): > 10 µg/mL

CCCCCCCCCC[C@H](O)[C@H]1CC[C@H]([C@H](O)CC[C@H](O)[C@@H]2CC[C@@H](CCCCC[C@@H](O)CC3=C[C@H](C)OC3=O)O2)O1 [TRILOBALICIN]
EC50 (PC-3): 0.98 µg/mL (≈ 1.6 µM) | EC50 (MIA PaCa-2): 0.28 µg/mL (≈ 0.458 µM) | LC50 [3]: 5.8 µg/mL (≈ 9.49 µM) | ED50 (A549): 5.8 ×10⁻⁸ ug/ml | ED50 (MCF7): 1.6 ×10⁻⁷ ug/ml | EC50 (HT-29): 2.3 µg/mL (≈ 3.77 µM) | EC50 (A498): 0.006 µg/mL (≈ 0.00982 µM)
